Results taken from the supplement of paper PMC10307832.

What was measured:
Assay in all cases: relative viability (nuclei count vs DMSO), 5 days (fraction); higher = more cells survive
NCI-H520 = system: NCI-H520
Procedure, shortened: (§1)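 Nuclei were stained with Hoechst during a one-step fixation (final 0.05% Triton X-100, 1% formaldehyde, 1 ug/ml Hoechst) carried out 5 days after dosing, then counted on 4× images. The cells, lung cancer lines in 1536-well plates, had been dosed by pin tool the day after seeding with one drug alone or a fixed anchor-drug dose plus five library-drug doses (not always all listed) in √10 steps. Relative viability is the nuclei count in treated wells divided by that in vehicle wells, and each value is the median of duplicate plates.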

LK-2 = system: LK-2
Procedure, shortened: as §1

NCI-H460 = system: NCI-H460
Procedure, shortened: as §1

A-427 = system: A-427
Procedure, shortened: as §1

ChaGo-K-1 = system: ChaGo-K-1
Procedure, shortened: as §1

BEN = system: BEN
Procedure, shortened: as §1

NCI-H2228 = system: NCI-H2228
Procedure, shortened: as §1

NCI-H358 = system: NCI-H358
Procedure, shortened: as §1

NCI-H2085 = system: NCI-H2085
Procedure, shortened: as §1

SW 1573 = system: SW 1573
Procedure, shortened: as §1

NCI-H1650 = system: NCI-H1650
Procedure, shortened: as §1

NCI-H2347 = system: NCI-H2347
Procedure, shortened: as §1

NCI-H322M = system: NCI-H322M
Procedure, shortened: as §1

SW 900 = system: SW 900
Procedure, shortened: as §1

EKVX = system: EKVX
Procedure, shortened: as §1

NCI-H3122 = system: NCI-H3122
Procedure, shortened: as §1

NCI-H596 = system: NCI-H596
Procedure, shortened: as §1

NCI-H1755 = system: NCI-H1755
Procedure, shortened: as §1

NCI-H650 = system: NCI-H650
Procedure, shortened: as §1

NCI-H1563 = system: NCI-H1563
Procedure, shortened: as §1

NCI-H838 = system: NCI-H838
Procedure, shortened: as §1

Structure (SMILES): COCC1(CO)C(=O)C2CCN1CC2 (centres undefined) [PRIMA-1MET] + Nc1nc2[nH]cc(CCc3ccc(C(=O)N[C@@H](CCC(=O)O)C(=O)O)cc3)c2c(=O)[nH]1 [Pemetrexed] (partner 0.2 µM)
- relative viability (NCI-H520; first compound 0.2 µM): 0.726
- relative viability (NCI-H520; first compound 2 µM): 0.681
- relative viability (NCI-H520; first compound 6.325 µM): 0.647
- relative viability (NCI-H520; first compound 20 µM): 0.421
- relative viability (LK-2; first compound 0.2 µM): 0.271
- relative viability (LK-2; first compound 0.6325 µM): 0.0831
- relative viability (LK-2; first compound 2 µM): 0.221
- relative viability (LK-2; first compound 6.325 µM): 0.125
- relative viability (LK-2; first compound 20 µM): 0.0594
- relative viability (NCI-H460; first compound 0.2 µM): 0.0602
- relative viability (NCI-H460; first compound 0.6325 µM): 0.051
- relative viability (NCI-H460; first compound 2 µM): 0.0601
- relative viability (NCI-H460; first compound 6.325 µM): 0.0553
- relative viability (NCI-H460; first compound 20 µM): 0.0386
- relative viability (A-427; first compound 0.2 µM): 1.11
- relative viability (A-427; first compound 0.6325 µM): 0.92
- relative viability (A-427; first compound 2 µM): 0.953
- relative viability (A-427; first compound 6.325 µM): 1.06
- relative viability (A-427; first compound 20 µM): 0.962
- relative viability (ChaGo-K-1; first compound 0.2 µM): 0.249
- relative viability (ChaGo-K-1; first compound 0.6325 µM): 0.261
- relative viability (ChaGo-K-1; first compound 2 µM): 0.26
- relative viability (ChaGo-K-1; first compound 6.325 µM): 0.247
- relative viability (ChaGo-K-1; first compound 20 µM): 0.263
- relative viability (BEN; first compound 0.2 µM): 0.898
- relative viability (BEN; first compound 0.6325 µM): 0.421
- relative viability (BEN; first compound 6.325 µM): 0.801
- relative viability (BEN; first compound 20 µM): 0.834
- relative viability (NCI-H2228; first compound 0.2 µM): 0.351
- relative viability (NCI-H2228; first compound 0.6325 µM): 0.332
- relative viability (NCI-H2228; first compound 2 µM): 0.3
- relative viability (NCI-H2228; first compound 6.325 µM): 0.305
- relative viability (NCI-H2228; first compound 20 µM): 0.0521
- relative viability (NCI-H358; first compound 0.2 µM): 0.175
- relative viability (NCI-H358; first compound 0.6325 µM): 0.159
- relative viability (NCI-H358; first compound 2 µM): 0.165
- relative viability (NCI-H358; first compound 6.325 µM): 0.164
- relative viability (NCI-H358; first compound 20 µM): 0.198
- relative viability (NCI-H2085; first compound 0.2 µM): 0.936
- relative viability (NCI-H2085; first compound 0.6325 µM): 0.925
- relative viability (NCI-H2085; first compound 2 µM): 0.549
- relative viability (NCI-H2085; first compound 6.325 µM): 0.862
- relative viability (NCI-H2085; first compound 20 µM): 0.165
- relative viability (SW 1573; first compound 0.2 µM): 0.882
- relative viability (SW 1573; first compound 0.6325 µM): 0.89
- relative viability (SW 1573; first compound 2 µM): 0.752
- relative viability (SW 1573; first compound 6.325 µM): 0.0377
- relative viability (SW 1573; first compound 20 µM): 0.0278
- relative viability (NCI-H1650; first compound 0.2 µM): 0.407
- relative viability (NCI-H1650; first compound 0.6325 µM): 0.306
- relative viability (NCI-H1650; first compound 2 µM): 0.399
- relative viability (NCI-H1650; first compound 6.325 µM): 0.374
- relative viability (NCI-H1650; first compound 20 µM): 0.304
- relative viability (NCI-H2347; first compound 0.2 µM): 0.441
- relative viability (NCI-H2347; first compound 0.6325 µM): 0.455
- relative viability (NCI-H2347; first compound 2 µM): 0.335
- relative viability (NCI-H2347; first compound 6.325 µM): 0.407
- relative viability (NCI-H2347; first compound 20 µM): 0.398
- relative viability (NCI-H322M; first compound 0.2 µM): 0.633
- relative viability (NCI-H322M; first compound 0.6325 µM): 0.562
- relative viability (NCI-H322M; first compound 6.325 µM): 0.624
- relative viability (NCI-H322M; first compound 20 µM): 0.0887
- relative viability (SW 900; first compound 0.2 µM): 0.522
- relative viability (SW 900; first compound 0.6325 µM): 0.282
- relative viability (SW 900; first compound 6.325 µM): 0.455
- relative viability (SW 900; first compound 20 µM): 0.0805
- relative viability (EKVX; first compound 0.2 µM): 0.448
- relative viability (EKVX; first compound 2 µM): 0.385
- relative viability (EKVX; first compound 6.325 µM): 0.447
- relative viability (EKVX; first compound 20 µM): 0.385
- relative viability (NCI-H3122; first compound 0.2 µM): 0.18
- relative viability (NCI-H3122; first compound 0.6325 µM): 0.199
- relative viability (NCI-H3122; first compound 2 µM): 0.206
- relative viability (NCI-H3122; first compound 6.325 µM): 0.192
- relative viability (NCI-H3122; first compound 20 µM): 0.206
- relative viability (NCI-H596; first compound 0.2 µM): 0.553
- relative viability (NCI-H596; first compound 0.6325 µM): 0.481
- relative viability (NCI-H596; first compound 2 µM): 0.531
- relative viability (NCI-H596; first compound 6.325 µM): 0.495
- relative viability (NCI-H596; first compound 20 µM): 0.176
- relative viability (NCI-H1755; first compound 0.2 µM): 0.465
- relative viability (NCI-H1755; first compound 0.6325 µM): 0.388
- relative viability (NCI-H1755; first compound 2 µM): 0.406
- relative viability (NCI-H1755; first compound 6.325 µM): 0.333
- relative viability (NCI-H1755; first compound 20 µM): 0.373
- relative viability (NCI-H650; first compound 0.2 µM): 1.26
- relative viability (NCI-H650; first compound 0.6325 µM): 0.894
- relative viability (NCI-H650; first compound 2 µM): 0.884
- relative viability (NCI-H650; first compound 6.325 µM): 0.978
- relative viability (NCI-H650; first compound 20 µM): 0.263
- relative viability (NCI-H1563; first compound 0.2 µM): 0.882
- relative viability (NCI-H1563; first compound 0.6325 µM): 0.935
- relative viability (NCI-H1563; first compound 6.325 µM): 0.77
- relative viability (NCI-H1563; first compound 20 µM): 0.887
- relative viability (NCI-H838; first compound 0.2 µM): 0.247
- relative viability (NCI-H838; first compound 0.6325 µM): 0.249
- relative viability (NCI-H838; first compound 2 µM): 0.261
- relative viability (NCI-H838; first compound 6.325 µM): 0.264
- relative viability (NCI-H838; first compound 20 µM): 0.174
